According to ChEMBL document CHEMBL1201862, “PubChem BioAssay data set” (2004):
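Exposure lasted 48 hours, with cells grown in 96-well plates and compounds tested at five concentrations. GI50 = concentration required for 50% inhibition of growth.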 Calls of active or inactive are those of the source. Cut-off read from the data, not from the text of the source: active = GI50 up to about 1.1 µM and inactive = higher.

Key:
Experiment in all cases: growth of human tumour cells (NCI), 48 h
DLD-1 = system: DLD-1
DMS-273 = system: DMS-273
KM-20L2 = system: KM-20L2
LXFL 529 = system: LXFL 529
M19-MEL = system: M19-MEL
RXF 631 = system: RXF 631
SNB-78 = system: SNB-78
XF498 = system: XF498
HOP-18 = system: HOP-18

Row | Compound | GI50 (DLD-1) | GI50 (DMS-273) | GI50 (KM-20L2) | GI50 (LXFL 529) | GI50 (M19-MEL) | GI50 (RXF 631) | GI50 (SNB-78) | GI50 (XF498) | GI50 (HOP-18)
1 | Cn1c(=O)c(NC(=O)C(Cl)(Cl)Cl)nc2ccccc21 | > 100 µM (inactive) | > 100 µM (inactive) | > 100 µM (inactive) | > 100 µM (inactive) | > 100 µM (inactive) | > 100 µM (inactive) | > 100 µM (inactive) | > 100 µM (inactive) | 
2 | CC(=O)OCC1OC(N2C(=O)/C(=N\NC(N)=S)c3ccc([N+](=O)[O-])cc32)C(OC(C)=O)C1OC(C)=O (centres undefined) | 29.6 µM (inactive) | 17.4 µM (inactive) | 31.5 µM (inactive) | 50 µM (inactive) | 18.4 µM (inactive) |  | 33.3 µM (inactive) | 29.9 µM (inactive) | > 100 µM (inactive)
3 | O=C(Nc1c(-c2nc3ccccc3[nH]2)sc(=S)n1-c1ccccc1)c1ccccc1 | > 100 µM (inactive) | 91.8 µM (inactive) |  | 58.9 µM (inactive) | > 100 µM (inactive) | > 100 µM (inactive) | 61.7 µM (inactive) |  | > 100 µM (inactive)
4 | CCOC(=O)CCc1c(C)c2c(OC(C)=O)cc(OC(C)=O)cc2oc1=O | 46 µM (inactive) | 35 µM (inactive) | > 100 µM (inactive) | 37.4 µM (inactive) | 61.9 µM (inactive) |  | 47.6 µM (inactive) |  | > 100 µM (inactive)
5 | CC(C)C1COC(C(C)(C)C2=N[C@@H](C(C)C)CO2)=N1 (some centres undefined) | > 100 µM (inactive) | > 100 µM (inactive) | > 100 µM (inactive) | > 100 µM (inactive) | > 100 µM (inactive) | > 100 µM (inactive) |  | > 100 µM (inactive) | > 100 µM (inactive)
6 | CC1(CO)C(=O)OC12CCCCC2 (centres undefined) | > 100 µM (inactive) | > 100 µM (inactive) |  | > 100 µM (inactive) | > 100 µM (inactive) | > 100 µM (inactive) | > 100 µM (inactive) | > 100 µM (inactive) | 
7 | NC(=O)NC(=O)C1CCC(=O)N1S(=O)(=O)c1ccc(Cl)cc1 (centres undefined) | > 100 µM (inactive) |  | > 100 µM (inactive) | > 100 µM (inactive) | > 100 µM (inactive) | > 100 µM (inactive) |  | > 100 µM (inactive) | > 100 µM (inactive)
8 | CCOCC(=O)N[C@H]1CCc2cc(OC)c(OC)c(OC)c2-c2ccc(OC)c(=O)cc21 | 0.019 µM (active) | 0.0128 µM (active) | 0.0118 µM (active) | 0.024 µM (active) | < 0.0202 µM (active) |  | < 0.0147 µM (active) | 0.0138 µM (active) | 
9 | CN(C)CCNC(=O)c1cccc2ccc(-c3cccnc3)nc12 | 4.41 µM (inactive) | 3.35 µM (inactive) |  |  | 5.71 µM (inactive) | 3.48 µM (inactive) | 7.11 µM (inactive) |  | 13.7 µM (inactive)
10 | CC1=C(C(=O)Nc2cc(F)c(F)cc2F)C(c2ccc(N(C)C)cc2)C(C(=O)Nc2cc(F)c(F)cc2F)=C(C)N1 | 34.9 µM (inactive) | 26.9 µM (inactive) | 34 µM (inactive) | 19.3 µM (inactive) | 38 µM (inactive) | 23 µM (inactive) | 17.7 µM (inactive) |  | 
11 | COc1ccc(C(=O)Nc2ccn(CCOC(=O)c3ccc(OC)cc3)c(=O)n2)cc1 | > 100 µM (inactive) | > 100 µM (inactive) | > 100 µM (inactive) | > 100 µM (inactive) | > 100 µM (inactive) | > 100 µM (inactive) | 76.2 µM (inactive) | > 100 µM (inactive) | > 100 µM (inactive)
12 | COC1C(O)CC(OC2CC(Oc3cc4cc5c(c(O)c4c(O)c3C)C(=O)[C@@H](OC3CC(OC4CC(OC6CC(C)(O)C(OC(C)=O)C(C)O6)C(O)C(C)O4)C(O)C(C)O3)[C@H]([C@H](OC)C(=O)[C@@H](O)[C@@H](C)O)C5)OC(C)C2OC(C)=O)OC1C (some centres undefined) [CHROMOMYCIN] | 0.00849 µM (active) |  | 0.00397 µM (active) |  | 0.00337 µM (active) |  | 0.00337 µM (active) | 0.00315 µM (active) | 0.00445 µM (active)
13 | C/N=C1\S/C(=N\c2ccc(N(C)C)cc2)N1C | 29.8 µM (inactive) | 54.1 µM (inactive) |  | 40.5 µM (inactive) | 38 µM (inactive) |  | 22.9 µM (inactive) |  | 35 µM (inactive)
14 | C=CCN1C(=O)CS/C1=N\NC(=O)c1c(C)nc2sccn12 | > 100 µM (inactive) | > 100 µM (inactive) | > 100 µM (inactive) | > 100 µM (inactive) | > 100 µM (inactive) | > 100 µM (inactive) |  | > 100 µM (inactive) | > 100 µM (inactive)
15 | Cc1ccc([N+](=O)[O-])cc1NC(=O)c1cccc([N+](=O)[O-])c1O | 20.7 µM (inactive) | 11.9 µM (inactive) | 25.5 µM (inactive) | 19.1 µM (inactive) | 15.5 µM (inactive) |  | 20.8 µM (inactive) | 18.2 µM (inactive) | 
16 | CCNC(=O)/C=C/CCC#Cc1ccc(-c2ccc(-c3cccs3)s2)s1 | > 100 µM (inactive) | > 100 µM (inactive) | > 100 µM (inactive) | > 100 µM (inactive) | > 100 µM (inactive) |  | > 100 µM (inactive) | 2.71 µM (inactive) | 4.82 µM (inactive)
17 | CSc1n/c(=N\c2ccccc2)sn1-c1ccccc1 |  | 8.83 µM (inactive) | 13.6 µM (inactive) |  | 5.58 µM (inactive) |  | 20.7 µM (inactive) |  | 
18 | CC1CCc2c(sc3ncnc(N/N=C/c4ccc(Cl)cc4)c23)C1 (centres undefined) | 33.6 µM (inactive) | 37.4 µM (inactive) | 22.8 µM (inactive) |  |  |  |  |  | 
19 | CCOC(=O)/C(O)=C/c1cc(OC)cc(=O)o1 | > 100 µM (inactive) | > 100 µM (inactive) | > 100 µM (inactive) | > 100 µM (inactive) | > 100 µM (inactive) |  | > 100 µM (inactive) |  | > 100 µM (inactive)
20 | O=C(O)C1CCCCN1C(=O)c1ccccc1 (centres undefined) | > 100 µM (inactive) | > 100 µM (inactive) | > 100 µM (inactive) | > 100 µM (inactive) | > 100 µM (inactive) | > 100 µM (inactive) | > 100 µM (inactive) | > 100 µM (inactive) | > 100 µM (inactive)
21 | Nc1nnc2nc(CC(=O)/C=C/c3ccccc3)c(=O)[nH]n12 | > 100 µM (inactive) | > 100 µM (inactive) | > 100 µM (inactive) | > 100 µM (inactive) | > 100 µM (inactive) | > 100 µM (inactive) | > 100 µM (inactive) | > 100 µM (inactive) | 
22 | O=C(O)CCSC(=S)Nc1cccc(F)c1 | 50.7 µM (inactive) | 46.9 µM (inactive) | 89.1 µM (inactive) | 62.2 µM (inactive) | 28.2 µM (inactive) |  | 97.1 µM (inactive) |  | > 100 µM (inactive)
23 | CC(=O)O[C@]12CCCCCCC1C1(O)C(O)CCC[C@H]12 (some centres undefined) |  | > 100 µM (inactive) | > 100 µM (inactive) | > 100 µM (inactive) | > 100 µM (inactive) |  | > 100 µM (inactive) | > 100 µM (inactive) | > 100 µM (inactive)
24 | O=C1N2Cc3c4ccc5c3CN3C(=O)N6Cc7c(ccc(c7CN1C6(c1ccccc1)C23c1ccccc1)OCCOCCOc1cc(Br)c(Br)cc1OCCOCCO4)OCCOCCOc1cc(Br)c(Br)cc1OCCOCCO5 (centres undefined) | 20.2 µM (inactive) | > 100 µM (inactive) | > 100 µM (inactive) | 67.3 µM (inactive) | > 100 µM (inactive) | > 100 µM (inactive) | > 100 µM (inactive) |  | > 100 µM (inactive)
